What was measured:
DDR2 = DDR2 (Homo sapiens (Human), UniProt Q16832); test: DDR2 enzyme activity test (ELISA); format: biochemical; settings: read-out: DDR2 IC50
Procedure, shortened: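 Recombinant DDR2 kinase domain (baculovirus-expressed) phosphorylates coated Poly(Glu,Tyr) 4:1 in HEPES pH 7.4 buffer with Mg/Mn, 1% DMSO, 1 h at 37 °C. Phosphotyrosine detected by PY99/HRP ELISA with OPD read at 490 nm; IC50 from four-parameter fit.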

C-Kit = C-Kit (Homo sapiens (Human), UniProt P10721); test: Enzyme selectivity test (ELISA), C-Kit; format: biochemical
C-Kit, sequence (P10721 26-976): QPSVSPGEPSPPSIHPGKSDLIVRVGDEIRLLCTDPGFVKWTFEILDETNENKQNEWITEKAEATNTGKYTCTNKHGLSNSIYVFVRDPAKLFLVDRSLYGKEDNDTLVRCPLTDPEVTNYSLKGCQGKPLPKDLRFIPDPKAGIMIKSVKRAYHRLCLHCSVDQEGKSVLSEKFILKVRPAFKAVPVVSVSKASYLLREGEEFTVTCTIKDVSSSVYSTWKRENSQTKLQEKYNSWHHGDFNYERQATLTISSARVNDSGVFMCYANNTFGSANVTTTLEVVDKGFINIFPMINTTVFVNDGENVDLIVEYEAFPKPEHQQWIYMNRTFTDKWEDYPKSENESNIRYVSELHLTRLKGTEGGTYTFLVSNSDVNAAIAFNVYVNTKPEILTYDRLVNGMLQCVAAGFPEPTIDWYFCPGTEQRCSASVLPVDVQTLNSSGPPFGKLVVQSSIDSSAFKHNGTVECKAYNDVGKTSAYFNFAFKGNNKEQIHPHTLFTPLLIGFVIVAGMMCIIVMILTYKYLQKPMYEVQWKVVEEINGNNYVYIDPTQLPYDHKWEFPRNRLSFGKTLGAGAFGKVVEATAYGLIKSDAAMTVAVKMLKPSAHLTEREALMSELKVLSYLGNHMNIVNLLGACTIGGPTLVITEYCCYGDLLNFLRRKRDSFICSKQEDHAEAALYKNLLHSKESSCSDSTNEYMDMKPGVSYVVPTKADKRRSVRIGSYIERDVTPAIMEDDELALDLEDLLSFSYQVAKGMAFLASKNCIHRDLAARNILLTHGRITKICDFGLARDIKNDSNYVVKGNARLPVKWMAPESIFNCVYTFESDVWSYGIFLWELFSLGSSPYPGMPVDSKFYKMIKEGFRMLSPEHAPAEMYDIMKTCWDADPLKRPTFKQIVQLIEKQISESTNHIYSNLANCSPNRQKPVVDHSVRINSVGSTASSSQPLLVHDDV
Protocol: (§1) 1) Enzyme reaction substrate Poly(Glu, Tyr) 4:1 was diluted to 20 μg/mL with potassium-free PBS (10 mM sodium phosphate buffer, 150 mM NaCl, pH 7.2-7.4), and the microtiter plate was coated with 125 μL/well and placed at 37° C. for 12-16 hours of reaction. The liquid in the well was discard. The plate was washed three times with T-PBS (potassium-free PBS containing 0.1% Tween-20, 200 μL/well), 5 minutes each time. The ELISA plate was dried in an oven at 37° C. for 1 to 2 hours.
(§2) 2) Reaction buffer (50 mM HEPES pH 7.4, 50 mM MgCl2, 0.5 mM MnCl2, 0.2 mM Na3VO4, 1 mM DTT) diluted ATP solution (49 μL) was added to each well, 1 μL of the compound to be tested was added to each well, and then 50 μL of DDR2 kinase domain recombinant protein diluted in the reaction buffer was added to start the reaction. Two control wells without ATP were set in each experiment. The plate placed on a shaker (100 rpm) at 37° C. for 1 hour of reaction. The liquid in the well was discarded and the plate was washed three times with T-PBS.
(§3) 3) Antibody PY99 dilution solution (the antibody was diluted 1:500 with T-PBS containing BSA 5 mg/mL) was added at 100 μL/well, and shaken on a shaker at 37° C. for 0.5 hour of reaction. The liquid in the well was discarded and the plate was washed three times with T-PBS.
(§4) 4) Horseradish peroxidase labeled goat anti-murine secondary antibody dilution solution (the antibody is diluted 1:2000 with T-PBS containing BSA 5 mg/ml) was added at 100 μL/well, and shaken on a shaker at 37° C. for 0.5 hour of reaction. The liquid in the well was discarded and the plate was washed three times with T-PBS.
(§5) 5) 2 mg/ml of OPD color developing solution [diluted with 0.1 M citric acid-sodium citrate buffer (pH=5.4) containing 0.03% H2O2] was added at 100 μL/well and reacted for 1 to 10 minutes at 25° C. in the dark.
(§6) 6) 2M H2SO4 was added at 50 μL/well to stop the reaction, and a tunable wavelength microplate reader VERSAmax was used for reading at a wavelength of 490 nm.
(§7) The IC50 value was obtained by four-parameter regression using the software that came with the microplate reader. […]

AXL = AXL (Homo sapiens (Human), UniProt P30530); test: Enzyme selectivity test (ELISA), AXL; format: biochemical
AXL, sequence (P30530 26-894, species assumed): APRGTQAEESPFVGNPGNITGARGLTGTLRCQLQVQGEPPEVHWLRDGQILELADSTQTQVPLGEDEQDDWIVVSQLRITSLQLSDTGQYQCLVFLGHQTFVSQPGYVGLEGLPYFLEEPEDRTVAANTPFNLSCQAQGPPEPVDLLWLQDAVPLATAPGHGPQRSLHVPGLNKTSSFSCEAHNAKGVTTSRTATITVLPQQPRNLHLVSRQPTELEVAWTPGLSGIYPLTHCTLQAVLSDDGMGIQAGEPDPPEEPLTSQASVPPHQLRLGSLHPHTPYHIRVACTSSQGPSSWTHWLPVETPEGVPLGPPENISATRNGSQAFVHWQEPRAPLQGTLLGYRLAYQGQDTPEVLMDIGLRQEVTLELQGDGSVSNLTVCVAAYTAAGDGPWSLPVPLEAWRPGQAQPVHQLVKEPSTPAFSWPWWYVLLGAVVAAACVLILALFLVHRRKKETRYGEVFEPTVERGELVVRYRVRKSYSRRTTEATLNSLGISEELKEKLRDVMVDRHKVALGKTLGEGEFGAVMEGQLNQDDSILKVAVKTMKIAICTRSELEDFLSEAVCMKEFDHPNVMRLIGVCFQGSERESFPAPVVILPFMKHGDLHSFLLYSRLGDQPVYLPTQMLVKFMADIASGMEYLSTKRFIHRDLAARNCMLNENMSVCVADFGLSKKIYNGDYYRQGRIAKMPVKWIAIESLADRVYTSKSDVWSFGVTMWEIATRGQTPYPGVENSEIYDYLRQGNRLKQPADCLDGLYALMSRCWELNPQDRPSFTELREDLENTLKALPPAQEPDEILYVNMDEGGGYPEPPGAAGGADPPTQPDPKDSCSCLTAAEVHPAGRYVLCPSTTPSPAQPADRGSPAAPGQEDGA
Protocol: as §1, §2, §3, §4, §5, §6, §7

[1] = test system: pulmonary fibrosis induced by bleomycin in mice; test: MASSON staining and α-SMA immunohistochemical staining of lung sections; format: in vivo, mouse; settings: Effect example 5, 30, 60, 90 mg/kg oral qd 12 days
Protocol: The grouping of mice is the same as that in Effect example 2.
1) Dewaxing to water of the paraffin sections: the sections were put into xylene I (20 minutes)-xylene II (29 minutes)-absolute ethanol I (5 minutes)-absolute ethanol II (5 minutes)-75% ethanol (5 minutes), and then washed with tap water.
2) Potassium dichromate staining: the sections were soaked in potassium dichromate overnight and washed with tap water.
3) Iron hematoxylin staining: iron hematoxylin solution A and B were mixed in an equal ratio to form an iron hematoxylin staining solution, then the sections were put into iron hematoxylin for about 3 minutes, washed with tap water, differentiated with a solution of hydrochloric acid in ethanol, and then rinsed with tap water.
4) Ponceau red acid fuchsin staining: the sections were put into a Ponceau red acid fuchsin solution for 5 to 10 minutes and rinsed with tap water.
5) Phosphomolybdic acid staining: the sections were put into an aqueous phosphomolybdic acid solution for 1 to 3 minutes.
6) Aniline blue staining: after the phosphomolybdic acid staining, the sections were not washed with water, but directly put into an aniline blue staining solution for staining for 3 to 6 minutes.
7) Differentiation: the sections were differentiated with 1% glacial acetic acid, and dehydrated with two cylinders of absolute ethanol. […]

DDR2, sequence (Q16832 563-849): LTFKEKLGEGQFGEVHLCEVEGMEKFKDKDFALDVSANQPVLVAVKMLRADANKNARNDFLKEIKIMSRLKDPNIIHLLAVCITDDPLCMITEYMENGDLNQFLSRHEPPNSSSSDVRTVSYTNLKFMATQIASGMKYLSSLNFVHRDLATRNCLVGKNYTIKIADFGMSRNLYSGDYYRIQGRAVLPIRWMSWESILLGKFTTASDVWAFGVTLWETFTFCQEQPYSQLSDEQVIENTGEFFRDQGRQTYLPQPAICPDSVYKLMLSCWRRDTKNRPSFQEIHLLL

O=C(Nc1cccc(C(F)(F)F)c1)c1ccc(C2CC2)c(-c2ccc3nc(Nc4cnn(C5CC5)c4)ncc3c2)c1 [Compound S15, 4-cyclopropyl-3-(2-((1-cyclopropyl-1H-pyrazol-4-yl)amino)quinazolin-6-yl)-N-(3-(trifluoromethyl)phenyl)benzamide]
IC50 (DDR2): 6.1 ± 0.5 nM
IC50 (C-Kit): > 1000 nM
IC50 (AXL): > 1000 nM
expression of collagen and α-SMA (staining, immunohistochemistry) [1]: decrease the expression of collagen and α-SMA in a dose-dependent manner
pulmonary fibrosis, MASSON staining [1]: significantly reduce BLM-induced lung injury and inflammation, and can also reduce pulmonary fibrosis

Source: patent US11655239B2 (SHANGHAI INSTITUTE OF MATERIAL MEDICA, CHINESE ACADEMY OF …, priority 2019, dated 2023)
